# Reference: patent US11285167B2, “Synergistic nutritional neuroprotective compositions for ameliorating neural dysfunction” (CELAGENEX RESEARCH (INDIA) PVT. LTD., priority 2019, dated 2022)
# Legend:
# [1] = tested on: Major depression disorder in Wistar rats; test: Forced swim test in Reserpine-induced major depression disorder; type: in vivo; conditions: forced swim test 5 min, Reserpine 1.0 mg/kg induced, oral daily 7 days, mean ± SEM, n = 6
# [2] = tested on: Major depression disorder in Wistar rats; test: Open field test (ambulatory behavior) in Reserpine-induced major depression disorder; type: in vivo; conditions: 6 minute session, Reserpine induced, oral daily 7 days, mean ± SEM, n = 6
compound,measurement,setting,value
"CN(C)CCC[C@@]1(c2ccc(F)cc2)OCc2cc(C#N)ccc21 [Escitalopram, reference compound]",Climbing,[1],20.17 ± 0.87
same,Immobility,[1],91.67 ± 0.80
same,Total time spent in active swimming,[1],208.33 ± 0.80 s
same,No. of open arm entries (Open field test),[2],47.83 ± 0.60
